Drawing on PubChem BioAssay AID1189 (EPA DSSTox, 2008), this text covers outcome for 114 molecules.

Activity calls are given as the source filed them.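 Rule for the calls: active = a tumor-causing dose value with its tumor site reported for any sex and species group of a rodent or other animal cancer study; inconclusive = only studies judged inadequate by the national testing program; inactive = tested in at least one study, none positive.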

The series in a line: DSSTox (CPDBAS) Carcinogenic Potency Database Summary SingleCellCall Results. Particulars: animal chronic carcinogenicity bioassays, CPDB summary call. The gist of the method:
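Categorical carcinogenicity call compiled from published chronic rodent and other animal cancer bioassays; based on the most positive result across experiments for each sex-species, assigned on minimal evidence for or against activity.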
With `CCCCCCCCCCC(C)c1ccc(S(=O)(=O)O)cc1` (centres undefined), the outcome was inactive.

`C1CCCNCCC1`: the result was inactive.

On to `CC(CCl)OC(C)CCl` (centres undefined), for which the outcome was active.

As to `C[C@@H]1CC2(O[C@@H]2C)C(=O)O[C@@H]2CCN(C)C/C=C(/COC(=O)[C@]1(C)O)C2=O` (some centres undefined), the outcome was “active; inactive”.

As to `CC(=O)Nc1ccc(N=Nc2cc(C)ccc2O)cc1`, the outcome is “active; inactive”.

For the molecule `CC(C)=CCl`, the outcome was active.

In the case of `NC(=O)NC1NC(=O)NC1=O` (centres undefined), the outcome was inactive.

Turning to `C[C@H]([C@H](O)CCC(C)(C)O)[C@H]1CC[C@@]2(O)C3=CC(=O)[C@@H]4C[C@@H](O)[C@@H](O)C[C@]4(C)[C@H]3CC[C@]12C`, the outcome is “active; inactive”.

Turning to `C=CBr`, the result was active.

On to `O=C(O[C@@H]1Cc2c(O)cc(O)cc2O[C@@H]1c1cc(O)c(O)c(O)c1)c1cc(O)c(O)c(O)c1`, for which the result was inactive.

Take `ClC(Cl)C(Cl)Cl`: the result was active.

Take `CC(=O)Nc1ccc(OCC(O)CNC(C)C)cc1` (centres undefined): the outcome was inactive.

In the case of `CC(C)NCC(O)COc1ccc(CC(N)=O)cc1` (centres undefined), the outcome was “inactive; active”.

On to `CCOC(=O)C1OC1(C)c1ccccc1` (centres undefined), for which the result was inactive.

In the case of `COc1c(Cl)c(Cl)c([N+](=O)[O-])c(Cl)c1Cl`, the result was inactive.

For the molecule `CN(N=O)c1ncnc2c1ncn2[C@@H]1O[C@H](CO)[C@@H](O)[C@H]1O`, the outcome was active.

`CC(=O)CN(N=O)C(N)=O`: the result was active.

As for `O=NN1CCSCC1`, the outcome was active.

With `O=[N+]([O-])O`, the outcome was “inactive; active”.

Regarding `COc1cc(-c2ccc(N=C=O)c(OC)c2)ccc1N=C=O`, the result was active.

Take `C=C(C)[C@H]1Cc2c(ccc3c2O[C@@H]2COc4cc(OC)c(OC)cc4[C@@H]2C3=O)O1`: the outcome is “inactive; active”.

As to `COc1ccc2nc(S(=O)Cc3ncc(C)c(OC)c3C)[nH]c2c1` (centres undefined), the result was active.

In the case of `CCCCNC(N)=O`, the outcome was inactive.

With `O=C(O)CCl`, the outcome is “inactive; active”.

For `Cc1ccc(Cc2cnc(NCCSCc3ccc(CN(C)C)o3)[nH]c2=O)cn1`, the result was active.

As for `CCCC[N+](=O)[O-]`, the outcome was inactive.

As to `ClC1=C(Cl)C2(Cl)C3C(Cl)C=CC3C1(Cl)C2(Cl)Cl` (centres undefined), the outcome was active.

Take `C1CO1`: the result was active.

In the case of `NNCc1ccccc1`, the result was active.

For the molecule `CCCCC/C=N/N(C)C=O`, the result was active.

Turning to `C=CC(O)c1ccc(OC)cc1` (centres undefined), the outcome was active.

For `c1ccc2ccccc2c1`, the result was active.

`CC(C)=NNc1ncc(-c2ccc([N+](=O)[O-])o2)s1`: the outcome was “active; inactive”.

As for `CC(F)(Cl)Cl`, the outcome was active.

Take `CC[C@H](OC(C)=O)C(C[C@H](C)N(C)C)(c1ccccc1)c1ccccc1`: the outcome was active.

As to `O=P(O)(OCC(Br)CBr)OCC(Br)CBr` (centres undefined), the outcome was “active; inactive”.

Turning to `C=CC=O`, the result was inactive.

For the molecule `CC(C)C/C=N/N(C)C=O`, the outcome was active.

For the molecule `Nc1ccc(N)c(Cl)c1`, the result was inactive.

In the case of `CN(C)CCN(Cc1cccs1)c1ccccn1`, the outcome was active.

In the case of `ClC(Br)Br`, the result was active.

Consider `C1OC1C1CO1` (centres undefined), for which the result was inactive.

For the molecule `CNN`, the result was active.

In the case of `CNC(=O)Oc1cc(C)c(N(C)C)c(C)c1`, the result was inactive.

`CCN(CC)c1cc2oc3cc(=[N+](CC)CC)c(C)cc-3c(-c3ccc(S(=O)(=O)O)cc3S(=O)(=O)[O-])c2cc1C`: the result was inactive.

In the case of `COc1cc(N=Nc2ccccc2)ccc1N`, the outcome was “active; inactive”.

With `S=C=Nc1ccccc1`, the outcome was inactive.

In the case of `OC(c1ccc(Cl)cc1)(c1ccc(Cl)cc1)C(Cl)(Cl)Cl`, the result was active.

As for `NCCNc1cccc2ccccc12`, the outcome was “inactive; active”.

On to `CN(C)C(=S)SC(=S)N(C)C`, for which the outcome was inactive.

With `COP(=O)(OC)OC=C(Cl)Cl`, the outcome was active.

`O=C1c2ccccc2C(=O)c2c(O)c(O)cc(O)c21`: the outcome was active.

As to `CCOP(=S)(OCC)Oc1nc(Cl)c(Cl)cc1Cl`, the result was inactive.

`ClC1=C(Cl)[C@]2(Cl)[C@@H]3[C@@H]4C[C@@H]([C@H]5O[C@@H]45)[C@@H]3[C@@]1(Cl)C2(Cl)Cl`: the outcome was active.

For `C=O`, the outcome was active.

Regarding `CN(N=O)C(N)=O`, the outcome was “active; inactive”.

As for `CN(C)CCO`, the outcome is “inactive; active”.

Consider `C=CC=C`, for which the outcome is “active; inactive”.

Turning to `N#CN=C(N)N`, the outcome was “inactive; active”.

With `Nc1nc(N)c2nc(-c3ccccc3)c(N)nc2n1`, the outcome is “active; inactive”.

Consider `CC(C)OC(=O)COc1ccc(Cl)cc1Cl`, for which the outcome was inactive.

In the case of `C#C[C@]1(OC(C)=O)CC[C@H]2[C@@H]3CCC4=CC(=O)CC[C@@H]4[C@H]3CC[C@@]21C`, the result was active.

As for `NNCCc1ccccc1`, the result was active.

Take `CC1CN(N=O)C(=O)NC1=O` (centres undefined): the outcome was inactive.

Regarding `CC(C)CCCCCCOC(=O)c1ccccc1C(=O)OCCCCCCC(C)C`, the outcome is “active; inactive”.

For `O=C(O)COc1cc(Cl)c(Cl)cc1Cl`, the outcome was inactive.

On to `ClC(Cl)C(Cl)(Cl)Cl`, for which the outcome was active.

As for `[O-]/[N+](=N\O)c1ccccc1`, the outcome was “active; inactive”.

`Nc1ccccc1C(=O)OC/C=C/c1ccccc1`: the outcome was active.

As to `ClCc1ccccn1`, the result was inactive.

In the case of `CCS(=O)(=O)c1ccc(S(N)(=O)=O)c2ccccc12`, the outcome was active.

For `C=CC(=O)c1ccc2c(c1)OCO2`, the outcome was inactive.

As to `Cc1cccc(N)c1`, the outcome is “active; inactive”.

For the molecule `C[C@@H]1CCCCN1N=O`, the outcome was active.

`CN1C(=O)CN=C(c2ccccc2)c2cc(Cl)ccc21`: the outcome was inactive.

Turning to `O=P1(N(CCCl)CCCl)NCCCO1` (centres undefined), the outcome was active.

Consider `CC(C)N(C(=O)SC/C(Cl)=C/Cl)C(C)C`, for which the outcome is “active; inactive”.

Regarding `CC[C@H](C)C(=O)O[C@H]1C[C@@H](C)C=C2C=C[C@H](C)[C@H](CC[C@@H]3C[C@@H](O)CC(=O)O3)[C@H]21`, the outcome is “active; inactive”.

Consider `CCCCC/C=C\C/C=C\CCCCCCCC(=O)OC`, for which the result was inactive.

For `C[C@@H]1CCC[C@H](C)N1CCCC(O)(c1ccccc1)c1ccccn1` (some centres undefined), the outcome was “inactive; active”.

Consider `CCN(CC)c1ccc(N=Nc2cc[n+]([O-])cc2)cc1`, for which the outcome was active.

As to `C=CCN(CC=C)N=O`, the result was active.

`CCCc1c(OCCCCc2nn[nH]n2)ccc(C(C)=O)c1O`: the outcome was active.

Regarding `O=c1[nH]c(=O)n(C2CCCO2)cc1F` (centres undefined), the outcome was inactive.

For `CC1CC(=O)O1` (centres undefined), the outcome was active.

Turning to `C=CCl`, the outcome is “active; inactive”.

With `CCCC(Cl)CCC(Cl)CCC(Cl)CCC(Cl)CCC(Cl)CCC(Cl)CCC(C)Cl` (centres undefined), the outcome was active.

As for `CCCCCCCN`, the result was inactive.

Take `CCc1cc(C(N)=S)ccn1`: the outcome is “active; inactive”.

On to `CC(C)(CO)CCCCCCC(C)(C)CO`, for which the outcome was inactive.

For `O=c1c(CO)c/c(=N/Nc2ccc(S(=O)(=O)O)c3ccccc23)c(=O)/c1=N/Nc1ccc(S(=O)(=O)O)c2ccccc12`, the result was inactive.

Consider `Clc1ccc(C(c2ccccc2Cl)C(Cl)Cl)cc1` (centres undefined), for which the outcome was inactive.

Consider `CN[C@H]1CCc2cc(OC)c(OC)c(OC)c2-c2ccc(OC)c(=O)cc21`, for which the result was inactive.

On to `CCCCNN`, for which the result was active.

For `CC(O)CN(C)N=O` (centres undefined), the outcome was active.

As for `NCC(=O)O`, the result was active.

On to `NC(CCC(=O)O)C(=O)O` (centres undefined), for which the outcome was “inactive; active”.

Regarding `O=NN1CCCCC1c1cccnc1` (centres undefined), the result was active.

Consider `C[C@@H]1Cc2c(Cl)cc(C(=O)N[C@@H](Cc3ccccc3)C(=O)O)c(O)c2C(=O)O1`, for which the result was active.

Take `CCCCC1C(=O)N(c2ccccc2)N(c2ccccc2)C1=O`: the outcome was “active; inactive”.

For `CCOP(=O)=O.CCOP(=O)=O.CCOP(=O)=O.[Al+3]`, the outcome was “active; inactive”.

As for `N#CSCc1ccccc1`, the outcome was inactive.

With `CC(=O)Nc1ccc(CC(=O)O)cc1`, the result was inactive.

As for `CNC(=S)N(C)C`, the outcome was active.

Consider `CCC1C(=O)OCC1Cc1cncn1C` (centres undefined), for which the outcome was inactive.

As for `O=C(O)c1ccccc1-c1c2cc(I)c(=O)c(I)c-2oc2c(I)c(O)c(I)cc12`, the result was inactive.

Regarding `CC(C)[N+](=O)[O-]`, the outcome was “inactive; active”.

For `ClC1C2(Cl)C3C4C5OC5C5C4C1(Cl)C(Cl)(C53)C2(Cl)Cl` (centres undefined), the outcome was inactive.

As for `CC(O)COC(C)(C)C` (centres undefined), the outcome was active.

For the molecule `Cc1cc(O)c2c(c1O)C(=O)C13C(=C2O)C(=O)C2C(O)C1C1C(O)C3C(=O)C3=C(O)c4c(O)cc(C)c(O)c4C(=O)C321` (centres undefined), the result was active.

As for `CCN(CC)C(=S)SSC(=S)N(CC)CC`, the outcome is “inactive; active”.

Consider `COc1c(Cl)c(Cl)c(Cl)c(Cl)c1Cl`, for which the outcome was active.

Regarding `Cc1cc(Cl)ccc1N`, the result was active.

Regarding `CC(CN1c2ccccc2Sc2ccccc21)N(C)C` (centres undefined), the outcome was inactive.
